SMILES strings stand for the structures.

One may read the EC50 as the concentration needed to bring the measured effect to its halfway point. Usually % Inhibition stands for the change of the read-out against control, counted positive when it falls. A higher % Inhibition goes with a strong effect. As a reminder, the Emax is the size of the effect at its maximum, as opposed to the concentration needed.

Experiment [1] concerns the target T1, human M1 muscarinic receptor (Homo sapiens, UniProt P11229).
T1 construct: purchased PerkinElmer Life and Analytical Sciences, Boston, MA
T1 sequence (P11229 1-460): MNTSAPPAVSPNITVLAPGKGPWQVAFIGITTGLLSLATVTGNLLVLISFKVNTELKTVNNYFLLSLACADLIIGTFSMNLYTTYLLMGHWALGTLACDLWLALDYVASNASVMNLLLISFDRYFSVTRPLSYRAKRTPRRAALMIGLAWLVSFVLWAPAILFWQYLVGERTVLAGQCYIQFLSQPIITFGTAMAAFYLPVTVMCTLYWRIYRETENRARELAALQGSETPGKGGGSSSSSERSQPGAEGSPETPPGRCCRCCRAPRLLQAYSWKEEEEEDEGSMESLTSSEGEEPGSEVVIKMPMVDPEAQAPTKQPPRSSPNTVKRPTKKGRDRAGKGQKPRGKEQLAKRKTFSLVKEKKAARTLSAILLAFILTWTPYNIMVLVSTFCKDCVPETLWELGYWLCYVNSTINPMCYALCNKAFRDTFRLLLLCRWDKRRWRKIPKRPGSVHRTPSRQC
The experiment is described as follows: GTP-γ-[35S] binding, antibody capture SPA (agonist and antagonist mode). Type of experiment: biochemical. Here is the method: (§1) The antibody capture scintillation proximity technique previously described by DeLapp et al was used in a 96-well plate to determine GTP-γ-[35S] binding. One hundred μl (20–40 fmol/well) of membrane preparation from CHO cells that stably express the human M1-M5 muscarinic receptors (PerkinElmer Life and Analytical Sciences, Boston, MA) were incubated with varying concentration of test compound (final concentrations from 50pM to 1μM) for 30 min. One μM final concentration of GDP was added to M2 and M4 receptor membranes before incubation. […] (500 pM final concentration; Perkin Elmer Life and Analytical Sciences) was added to each well followed by 30 min of incubation. […] An anti-Gαq/11 antibody was used for the M1-, M3-, and M5 membranes, whereas an anti-Gαi-3 antibody was used for the M2- and M4 membranes (Eli Lilly and Company, Indianapolis, IN). […] By use of a Wallac MicroBeta TriLux scintillation counter (PerkinElmer), the plates were centrifuged for 10 min at 700 × g and counted for 1 min per well. The incubations took place at room temperature in GTP-binding assay buffer (20 mM Hepes, 100 mm NaCl, 5 mM MgC12, pH 7.4). The data were analyzed by use of nonlinear regression for a sigmoidal concentration response curve (GraphPad Prism v. 4.0). Data were normalized to a full agonist response (100 μM oxotremorine-M). […] The antagonist percent inhibition data were normalized to data generated with an EC90 concentration of acetylcholine. The mean relative EC50, IC50, and %Emax, and pKi values were calculated as a mean of at least three independent experiments±SEM. In order to obtain relevant comparisons between subtypes, the experimental system is routinely calibrated with reference agonists (oxotremorine-M, pilocarpine, MCN-A343) to measure full and partial agonism as well as to ensure that the system is not under- or over-reporting functional efficacies. The radioligand binding assays have earlier been described.
On the technique in general: GTPγS resists hydrolysis and so accumulates on activated G proteins.

Experiment [2] has as its target T2, human M5 muscarinic receptor (Homo sapiens, UniProt P08912).
T2 construct: purchased PerkinElmer Life and Analytical Sciences, Boston, MA
T2 sequence (P08912 1-532): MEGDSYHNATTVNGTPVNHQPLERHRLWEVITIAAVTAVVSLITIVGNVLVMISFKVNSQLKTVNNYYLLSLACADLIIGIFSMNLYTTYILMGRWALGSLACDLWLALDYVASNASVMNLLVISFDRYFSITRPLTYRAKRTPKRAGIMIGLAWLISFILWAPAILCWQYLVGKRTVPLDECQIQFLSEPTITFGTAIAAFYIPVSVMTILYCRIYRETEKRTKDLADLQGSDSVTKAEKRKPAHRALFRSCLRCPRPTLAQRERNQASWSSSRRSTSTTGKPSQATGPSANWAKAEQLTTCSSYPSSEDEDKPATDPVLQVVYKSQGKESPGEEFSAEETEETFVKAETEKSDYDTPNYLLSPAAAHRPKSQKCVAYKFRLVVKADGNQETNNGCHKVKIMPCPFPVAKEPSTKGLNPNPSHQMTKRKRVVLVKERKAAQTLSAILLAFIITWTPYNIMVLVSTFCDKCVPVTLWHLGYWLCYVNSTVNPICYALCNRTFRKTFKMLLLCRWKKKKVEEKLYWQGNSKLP
The description is as above. Type of experiment: biochemical. Here is the method: as §1

The mark [3] stands for this setting: antagonist mode, maximal inhibition of EC90 agonist response.

Consider `CCCSc1nsnc1[C@H]1CN2CCC[C@H]1C2` [PTAC, (5R,6R) 6-(3-propylthio-1,2,5-thiadiazol-4-yl)-1-azabicyclo-[3.2.1]-octane], for which the values for the EC50 in experiment [1] and in experiment [2] were 0.372 nM and 15.5 nM, respectively. For the same compound, the IC50 in experiment [1] was 0.933 nM; in experiment [2] (antagonist mode against EC90 of agonist, negative log-transformed, read-out: Rel pIC50 (converted)), 107 nM. The “% Inhibition” value came to 54.3 ± 1.70% in experiment [1] (setting [3]) and 87.3 ± 7.07% in experiment [2] (setting [3]). The Emax was 38.1 ± 9.94% in experiment [1] (percentage of maximum 100 μM oxotremorine-M signal) and 15.4 ± 2.73% in experiment [2].

The record behind these values is paper PMC4399838, “Antipsychotic-Like Effect of the Muscarinic Acetylcholine Receptor Agonist BuTAC in Non-Human Primates” (PLoS ONE, 2015).
